Measurements from US4788304A, “Phospholipase A2 inhibitors” (American Home Products Corporation, priority 1987, dated 1988).

Legend:
human platelet PLA2 = molecular target: T1, human platelet PLA2 (Homo sapiens, UniProt P14555); experiment: Inhibition of cell free human platelet PLA2 (hydrolysis of [3H]-AA labelled E. coli phospholipids); type: biochemical; settings: 30 min
T1 construct: The PLA2 enriched supernatant fluid is removed and the amount of protein is determined by the Lowry method; from tissue; host or cells: expired human platelets from the blood bank (acid extract, not purified)
T1 sequence (P14555 21-144): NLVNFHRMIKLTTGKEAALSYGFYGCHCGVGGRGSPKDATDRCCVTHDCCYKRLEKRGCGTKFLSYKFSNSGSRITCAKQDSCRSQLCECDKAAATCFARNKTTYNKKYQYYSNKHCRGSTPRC
Method: The ability of the compounds in the scope of the invention to inhibit the activity of cell free human platelet PLA2 enzyme is measured in the following in vitro assay.
E. coli, cultured to exponential growth, are sedimented for 15 minutes at 10,000 g and resuspended in sterile isotonic saline (1-3 ml). 10-25 μCi uniformly labeled [^3 H]-arachidonic acid (AA) is added to a sterile flask, evaporated by N2 and resolubilized with 0.3 ml 20% fatty acid-free bovine serum albumen (BSA). 75-100 ml of nutrient broth and 1 ml E. coli are then added to each flask and incubated for 2-3 hours at 37° C. [^3 H]-AA labelled E. coli are then sedimented, suspended in saline and added to fresh nutrient broth and incubated for 1.5 hours at 37° C. to complete [^3 H]-AA incorporation into the phospholipids. After overnight refrigeration of cultures, E. coli are again sedimented, suspended in saline and autoclaved for 15 minutes at 120° C. E. coli cultures are washed twice with saline (first wash contains 1 % BSA) and resuspended in saline. Non-labelled E. coli cultures are also prepared in the same manner. Cell number is determined by measuring the optical density at […] (3×10 cell/ml=1 O.D.). The amount of radioactivity associated with cells is determined by counting a defined volume of cell suspension. The specific activity is subsequently adjusted by adding non-labelled E. coli to yield 2-4×10 cpm per 1×10^10 E. coli.
Expired human platelets from the blood bank are centrifuged for 15 minutes at 200 g to obtain a platelet rich fraction and to remove the red blood cells. Platelets are sedimented for 15 minutes at 2500 g and the plasma is removed before adding cold 0.18N H2 SO4 (4 ml/unit). Platelets are homogenized, incubated for 1 hour at 4° C., homogenized again and centrifuged for 15 minutes at 10,000 g. The PLA2 enriched supernatant fluid is removed and the amount of protein is determined by the Lowry method. The preparation is divided into various portions and stored at -20° C.
The assay measures the hydrolysis of E. coli membrane phospholipids and the release of free [^3 H]-AA from the C-2 position of phospholipids by human platelet PLA2. To ice cold 15×100 mm test tubes, the following additions are made; 2.5×10^8 E. coli (equivalent to 5 nmol phospholipid), 5 mM Ca++, 100 mM Tris buffer (pH=7.4), 100 μg platelet extract (or an amount to produce 20-30% hydrolysis), drug or vehicle. Incubation are carried out at 37° C. in a shaking water bath for 30 minutes. The reaction is terminated by the addition of 2 volumes of tetrahydrofuran (THF) and the mixture is vortexed. Hydrolyzed [^3 H]-AA is separated from unhydrolyzed phospholipid by solid phase extraction using Bond elute NH2 columns (Analytichem Intermat.). Columns are conditioned with 0.5 ml THF followed by 0.5 ml THF:H2 O (2.0:0.1 ml v/v). Samples are loaded onto columns and hydrolyzed [^3 H]-AA is eluted with 1 ml THF:glacial acetic acid (98.0:2.0 ml v/v). The elutant is transferred to vials, 10 ml Optifluor is added and the radioactivity is determined by liquid scintillation counting.
Treatments are corrected for non-enzymatic hydrolysis by subtracting the dpms in treatments containing no enzyme. Mean [^3 H]-AA dpm is determined and a percent inhibition relative to vehicle treated samples is calculated.
The percent hydrolysis is calculated by the following equation: [formula]

[1] = system: AA-induced mouse ear edema; experiment: Arachidonic acid (AA)-induced murine ear edema test; type: in vivo, mouse (Swiss Webster); settings: 1 mg/ear, 30 min prior to AA, measured 1 h after AA
[2] = system: oxazolone-induced contact hypersensitivity in the mouse ear; experiment: Oxazolone-induced contact hypersensitivity in the mouse ear; type: in vivo, mouse (Swiss Webster); settings: dosed at 1 mg/ear
Method: The assay of this Example measures the ability of the compounds in the scope of the invention to inhibit oxazolone-induced contact hypersensitivity in the mouse ear.
Female, Swiss Webster mice (8 weeks old) are placed into groups of 6 and the abdominal area of each is shaved. The mice are sensitized to oxazolone (4-ethoxymethylene-2-phenyl-oxazol-5-one) by applying 100 μl of a 2% solution in 95% alcohol directly onto the shaved abdomen using an automatic pipette and rubbing the residual oxazolone into the skin with a round wooden stick. Six days after sensitization each mouse is challenged by applying 20 μl of a 2% oxazolone solution in 95% alcohol to the right ear (10 μl on each side) and 20 μl of alcohol alone to the left ear. Compounds for topical applications are prepared in acetone and administered to the right ear 30 min after challenge or 30 min prior to and 5 h after challenge; acetone (vehicle) is applied to the left ear. Compounds for oral administration are suspended in 0.5 ml of 0.5% methyl cellulose and given ten min prior to challenge. Ear thickness of both ears is measured in mm×10^-2 at 24 and 48 h after challenge using an Oditest caliper. Edema is calculated by subtracting the left ear thickness from the right ear thickness. Drug effects are determined by calculating the percentage change from control for each time period.

inhibition at 50 µM (human platelet PLA2; at 50 μM, pH 7.4, 37° C.): 83.2%
IC50 (human platelet PLA2; cell free human platelet PLA2, pH 7.4, 37° C., read-out: IC50 (PLA2)): 10.7 µM
SMILES: COC(=O)C1(C(=O)CCCCOc2ccc(Cl)cc2)CO1 (stereo not shown) [Example 6A, 2-[5-(4-Chlorophenoxy)-1-oxopentyl]-2-oxiranecarboxylic acid methyl ester]
Mouse Ear Edema Assay, % Change from Control, TOPICAL, AA [1]: -38%
% Inhibition (oxazolone contact hypersensitivity) [2]: 34.3%
